Common to all, as to format: ADME, organism-based, Aqueous humor of eyeball
Conditions in all cases: in vivo

Series [1] is filed under the species Homo sapiens. The series can be described thus: Drug level in human aqueous humor sample measured on basis of interday target compound concentration of 30 ng/ml by LC/MS method.
For series [2], the species on record is Homo sapiens. The series is described as follows: Drug level in human aqueous humor sample measured on basis of intraday target compound concentration of 4000 ng/ml by LC/MS method.
The species named for series [3] is Homo sapiens. The series can be described thus: Drug level in human aqueous humor sample measured on basis of interday target compound concentration of 4000 ng/ml by LC/MS method.
The species entered for series [4] is Homo sapiens. The series can be described thus: Drug level in human aqueous humor sample measured on basis of intraday target compound concentration of 300 ng/ml by LC/MS method.
For series [5], the species on record is Homo sapiens. The series can be described thus: Drug level in human aqueous humor sample measured on basis of intraday target compound concentration of 30 ng/ml by LC/MS method.
The species named for series [6] is Homo sapiens. The series can be described thus: Drug level in human aqueous humor sample measured on basis of interday target compound concentration of 300 ng/ml by LC/MS method.

On to `CC[C@H](C)C[C@H](C)CCCCCCCCC(=O)N[C@H]1C[C@@H](O)[C@@H](NCCN)NC(=O)[C@@H]2[C@@H](O)CCN2C(=O)[C@H]([C@H](O)CCN)NC(=O)[C@H]([C@H](O)[C@@H](O)c2ccc(O)cc2)NC(=O)[C@@H]2C[C@@H](O)CN2C(=O)[C@H]([C@@H](C)O)NC1=O` [CASPOFUNGIN], for which the Drug uptake in the series filed under Homo sapiens [1] was determined as 31.4 ng/mL; in the series listed under Homo sapiens [2] it was 3986 ng/mL; in the series filed under Homo sapiens [3] it was 3965 ng/mL; in the series filed under Homo sapiens [4] it was 280 ng/mL; in the series filed under Homo sapiens [5] it was 26.9 ng/mL; in the series filed under Homo sapiens [6], 282 ng/mL.

The record behind these values is ChEMBL document CHEMBL1671730, “Rapid and sensitive liquid chromatography/mass spectrometry assay for caspofungin in human aqueous humor” (Antimicrob Agents Chemother, 2010).
